{
  "source": "patent US7091025B2",
  "about": "“Malathion carboxylesterase” (priority 1995, dated 2006)",
  "key": {"[1]": {"tested_on": "Lucilia cuprina LcαE7 (esterase E3) gene product, OP-susceptible allele (LS2)", "conditions": "described in PCT/AU 95/00016; cited from earlier work"}, "[2]": {"biological_target": "Lucilia cuprina LcαE7 (esterase E3) gene product, malathion resistant allele, Trp to Leu at position 251 (Lucilia cuprina, UniProt Q25252, W251L)", "test": "chlorfenvinphos hydrolysis, expressed malathion resistant LcαE7 product", "type": "biochemical", "conditions": "75 μM CVP", "method": "The malathion resistant Lcα7 full-length cDNA was cloned into the baculovirus transfer vector, Bacpac 6 (Clonetech) 3′ of the polyhedrin promoter. Transfections were conducted using a lipofection method with DOTAP (Boehringer Mannheim) as per King and Possee (The Baculovirus Expression System: A Laboratory Guide, Chapman & Hall, London, 1992). One μg of DNA of each of the resulting constructs together with 200 ng of Bacpac 6 baculovirus DNA (Clonetech), linearised by digestion with the restriction enzyme BSU 36I (Promega), was incubated in a solution of HBS (hepes buffered saline) containing 15% DOTAP (Boehringer Mannheim) in a polystyrene container at room temperature for 10 minutes. The solution was then used to transfect a single well of a six well tissue culture plate pre-seeded 2 hrs previously with 10^4 Sf9 (Spodoptera frugiperda) cells in 1.5 mls Grace's medium (King and Possee, The Baculovirus Expression System: A Laboratory Guide, Chapman & Hall, London, 1992). After 12 hours, the medium was replaced with 3 mls of Grace's medium containing 10% fetal calf serum. Construct plus DOTAP, linearised virus plus DOTAP and DOTAP only controls were conducted in parallel with transfections. The transfections were harvested 4–5 days after infection and the cells isolated by centrifugation at 500 g for 5 minutes. […]"}, "[3]": {"tested_on": "malathion carboxylesterase (MCE) purified from malathion resistant strains of L. cuprina", "conditions": "purified MCE (Whyard and Walker 1994); cited from earlier work"}, "[4]": {"tested_on": "MCE encoded by the malathion resistant allele of LcαE7", "test": "Sensitivity of MCE activity to TPP (titration/preincubation of cell extract)", "type": "biochemical, L. cuprina"}, "[5]": {"tested_on": "malathion resistant strains of M. domestica, C. putoria and L. cuprina", "conditions": "literature, cited from earlier work"}, "[6]": {"tested_on": "MCE activity associated with malathion resistance in M. domestica, C. putoria and L. cuprina", "conditions": "literature; cited from earlier work"}, "[7]": {"biological_target": "T1, Lucilia cuprina LcαE7 (esterase E3) gene product, malathion resistant allele (strain RM-8), Trp to Leu at position 251 (Lucilia cuprina, UniProt Q25252, W251L)", "test": "sensitivity of MCE activity to TPP, expressed malathion resistant LcαE7 product", "type": "biochemical", "conditions": "TPP 8×10^−8M, preincubation 15, 30 or 45 minutes"}, "[8]": {"tested_on": "CC(=O)Oc1cccc2ccccc12", "test": "α-naphthyl acetate hydrolysis, expressed malathion resistant LcαE7 product", "type": "biochemical, Lucilia cuprina", "conditions": "other: α-NA 6-200 μM, 25° C., pH 8.0", "method": "(§1) The malathion resistant Lcα7 full-length cDNA was cloned into the baculovirus transfer vector, Bacpac 6 (Clonetech) 3′ of the polyhedrin promoter. Transfections were conducted using a lipofection method with DOTAP (Boehringer Mannheim) as per King and Possee (The Baculovirus Expression System: A Laboratory Guide, Chapman & Hall, London, 1992). One μg of DNA of each of the resulting constructs together with 200 ng of Bacpac 6 baculovirus DNA (Clonetech), linearised by digestion with the restriction enzyme BSU 36I (Promega), was incubated in a solution of HBS (hepes buffered saline) containing 15% DOTAP (Boehringer Mannheim) in a polystyrene container at room temperature for 10 minutes. […]\n(§2) The initial rates of reactions between cell extracts containing the expressed products of the malathion resistant and susceptible LcαE7 alleles and α-naphthyl acetate (α-NA) were determined at 25° C. using a recording spectrophotometer and the method of Mastrapaolo and Yourno (Analytical Biochemistry 115: 188, 1981). 6–200 μM α-NA dissolved in 10 μl of 2-methoxyethanol was added to 0.1 M Tris-HCl pH 8.0 (980 μl) in a quartz cuvette. α-Naphthyl acetate is slowly hydrolysed in water so a background rate was recorded before starting the enzymic reaction by the addition of 10 μl of diluted cell extract. […]\n(§3) Km and Vmax were calculated for both enzymes. […]"}, "[9]": {"tested_on": "CCCC(=O)Oc1cccc2ccccc12", "test": "α-naphthyl butyrate hydrolysis, expressed malathion resistant LcαE7 product", "type": "biochemical, Lucilia cuprina", "conditions": "other: α-NB 6-200 μM, 25° C., pH 8.0", "method": "as §1, §2, §3"}, "[10]": {"biological_target": "Lucilia cuprina LcαE7 (esterase E3) gene product, malathion susceptible allele (strain LS2; clone Lc743), Trp at position 251 (Lucilia cuprina, UniProt Q25252)", "sequence (Q25252 entry or part of it)": "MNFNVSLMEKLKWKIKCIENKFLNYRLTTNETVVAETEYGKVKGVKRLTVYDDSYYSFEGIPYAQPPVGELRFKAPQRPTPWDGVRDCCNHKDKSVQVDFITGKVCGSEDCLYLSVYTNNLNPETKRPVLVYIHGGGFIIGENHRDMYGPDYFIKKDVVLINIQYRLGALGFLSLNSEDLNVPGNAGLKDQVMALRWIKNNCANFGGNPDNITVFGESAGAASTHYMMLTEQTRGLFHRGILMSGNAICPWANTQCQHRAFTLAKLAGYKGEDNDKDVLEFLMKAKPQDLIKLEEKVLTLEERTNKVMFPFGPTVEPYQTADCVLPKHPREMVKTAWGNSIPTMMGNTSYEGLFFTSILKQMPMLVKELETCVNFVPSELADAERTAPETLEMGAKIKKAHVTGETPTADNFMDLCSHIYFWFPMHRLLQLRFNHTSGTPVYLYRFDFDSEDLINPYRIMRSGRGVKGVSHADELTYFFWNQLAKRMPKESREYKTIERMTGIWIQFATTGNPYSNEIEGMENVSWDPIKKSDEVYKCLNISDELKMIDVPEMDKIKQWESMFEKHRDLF", "test": "malathion hydrolysis (MCE activity), expressed malathion susceptible LcαE7 product", "type": "biochemical", "conditions": "malathion 2.5-100 μM, 25° C., pH 7.0"}, "[11]": {"tested_on": "malathion carboxylesterase (MCE) purified from malathion resistant strains of L. cuprina", "conditions": "cited from earlier work"}, "[12]": {"biological_target": "T1, Lucilia cuprina LcαE7 (esterase E3) gene product, malathion resistant allele (strain RM-8), Trp to Leu at position 251", "test": "malathion hydrolysis (MCE activity), expressed malathion resistant LcαE7 product", "type": "biochemical", "conditions": "malathion 2.5-100 μM, 25° C., pH 7.0"}, "[13]": {"tested_on": "malathion carboxylesterase (MCE) purified from malathion resistant strains of L. cuprina", "conditions": "purified MCE (Whyard and Walker 1994); cited from earlier work", "remark": "listed apart in the source"}, "[14]": {"conditions": "purified MCE (Whyard et al. 1994)"}},
  "note": "Read-outs that look alike come from different tables or passages of the source.",
  "data": [
    {"molecule": "CCOP(=O)(OCC)OC(=CCl)c1ccc(Cl)cc1Cl", "note": "[CVP, chlorfenvinphos]", "values": [
      {"measurement": "CVP / diethyl OP hydrolytic activity", "setting": "[1]", "result": "undetectable"},
      {"measurement": "turnover, fold less than that of the diazinon resistant (RM2-6) gene product", "setting": "[2]", "result": "approximately 50 fold"},
      {"measurement": "turnover (hydrolytic activity)", "setting": "[2]; 30° C., pH 7.0", "result": "about 1.2 hour^−1"}
    ]},
    {"molecule": "CCCC(=O)Oc1cccc2ccccc12", "note": "[α-naphthyl butyrate]", "values": [
      {"measurement": "Kcat", "setting": "[3]", "result": 3700, "unit": "per min"},
      {"measurement": "Km", "setting": "[3]", "result": "39 ± 4", "unit": "µM"}
    ]},
    {"molecule": "O=P(Oc1ccccc1)(Oc1ccccc1)Oc1ccccc1", "note": "[TPP, triphenylphosphate]", "values": [
      {"measurement": "turnover of TPP by MCE", "setting": "[4]; TPP 8×10^−8M preincubated 15, 30 or 45 minutes with cell extract", "result": "not being turned over"},
      {"measurement": "concentration giving stoichiometric inhibition of MCE activity", "setting": "[4]; expressed product of malathion resistant LcαE7 allele, substrate malathion", "result": "below 10^−7 M"},
      {"measurement": "synergism of malathion", "setting": "[5]; listed as triphenylphosphate", "result": "best synergists"},
      {"measurement": "synergism of malathion", "setting": "[5]", "result": "potent synergism of malathion by TPP"},
      {"measurement": "sensitivity of MCE activity to inhibition by TPP", "setting": "[6]", "result": "High sensitivity to inhibition by TPP"},
      {"measurement": "residual MCE activity at different preincubation times / completeness of inhibition by TPP", "setting": "[7]", "result": "no significant difference between the residual MCE activity at each of the preincubation times"},
      {"measurement": "turnover of TPP by MCE", "setting": "[7]", "result": "TPP was not being turned over by MCE"}
    ]},
    {"molecule": "Lucilia cuprina LcαE7 (esterase E3) gene product, malathion resistant allele (strain RM-8), Trp to Leu at position 251 (Lucilia cuprina; W251L)", "values": [
      {"measurement": "Km", "setting": "[8]", "result": "150 ± 50", "unit": "µM"},
      {"measurement": "kcat", "setting": "[8]", "result": "37.8 ± 0.5", "unit": "s⁻¹"},
      {"measurement": "Km", "setting": "[9]", "result": "29 ± 4", "unit": "µM"},
      {"measurement": "kcat", "setting": "[9]", "result": "150 ± 6.67", "unit": "s⁻¹"}
    ]},
    {"molecule": "CCOC(=O)CC(SP(=S)(OC)OC)C(=O)OCC", "note": "(centres unmarked) [malathion, S-1,2-bis(ethoxycarbonyl)ethyl O,O-dimethyl phosphorodithioate]", "values": [
      {"measurement": "Kcat", "setting": "[10]", "result": "1.17 ± 0.183", "unit": "s⁻¹"},
      {"measurement": "Km", "setting": "[10]", "result": "200 ± 30", "unit": "µM"},
      {"measurement": "Kcat", "setting": "[11]; purified MCE (Whyard and Walker 1994)", "result": "46±2", "unit": "per min"},
      {"measurement": "Km", "setting": "[11]; [14]", "result": "11 ± 0.4", "unit": "µM"},
      {"measurement": "Vmax", "setting": "[11]; [14]", "result": "775±28", "unit": "nmol malathion/min/mg"},
      {"measurement": "kcat (turnover number)", "setting": "[11]; [14]", "result": 0.767, "unit": "s⁻¹"},
      {"measurement": "Kcat", "setting": "[12]", "result": "0.717 ± 0.017", "unit": "s⁻¹"},
      {"measurement": "Km", "setting": "[12]", "result": "21 ± 1", "unit": "µM"}
    ]},
    {"molecule": "CC(=O)Oc1cccc2ccccc12", "note": "[α-naphthyl acetate]", "values": [
      {"measurement": "Kcat", "setting": "[13]", "result": 2063, "unit": "per min"},
      {"measurement": "Km", "setting": "[13]", "result": "167 ± 14", "unit": "µM"}
    ]}
  ]
}
